Values quoted from earlier work in PMC2074382 (British Journal of Cancer, 1996).
Where a name gives a salt, the structure may show the parent alone.

Tests used:
[1] = test system: mice; settings: by rough estimate; cited from earlier work
[2] = test system: HT-29 and SW-48 colon, PC-3 prostate, MX-1 breast, H460 lung, SKOV3 ovarian and KB epidermoid carcinomas xenografts; settings: HT-29, SW-48, PC-3, MX-1, H460, SKOV3, KB; ref Emerson et al., 1993, 1994, 1995; cited from earlier work

CC[C@@]1(O)C(=O)OCc2c1cc1n(c2=O)Cc2c-1nc1cc3c(cc1c2CN1CCN(C)CC1)OCCO3 [GI147211, [7 - (methylpiperazinomethylene) - 10,11 - ethylene-dioxy-20(S)] camptothecin dihydrochloride]
murine LD10 compared with topotecan [1]: equivalent to topotecan
cytotoxicity against xenografts of human cancers [2]: cytotoxicity against several xenografts of human cancers
